Laboratory results taken from publication PMC8714961, “Involvement of P-gp on Reversing Multidrug Resistance Effects of 23-Hydroxybetulinic Acid on Chemotherapeutic Agents” (Frontiers in Pharmacology, 2021).
Values belong to the compound of their own block, whether it stands above or below them.

Columns and labels:
MCF-7/ADR cells [1] = assay: Trypan blue exclusion assay, MCF-7/ADR cells; type: cell-based
Description: (§1) MCF-7 (human breast carcinoma cells) and MCF-7/ADR (P-gp-overexpressing derivative cells) cell lines were obtained from Blood Diseases Hospital, Chinese Academy of Medica ([Shi et al., 2011]). The cells were routinely maintained in RPMI 1640 with 10% heat-inactivated fetal bovine serum (FBS), 1% non-essential amino acid solution, 0.1 mg/ml streptomycin, and 100 units/ml penicillin. Caco-2 cells were purchased from American Type Culture Collection (ATCC, Rockville, MD, United States). Vector-MDCK and MDR1-MDCK cells were purchased from PharmaResources Co., Ltd. (China). Both Caco-2 and MDCK cells were maintained at Dulbecco’s modified Eagle’s medium (DMEM) with 10% FBS, 1% non-essential amino acid solution, 0.1 mg/ml streptomycin, and 100 units/ml penicillin. MCF-7/ADR cells were treated with […] and were cultured in ADR-free medium for more than 14 days before the experiment. All cells were cultured at 37°C in a humidified atmosphere of 5% CO2.
(§2) Trypan blue exclusion assay was used to measure the viability of cells to compounds. Briefly, MCF-7/sensitive (MCF-7/S) and MCF-7/ADR cells were diluted into the density of 0.5×10^4 cells/ml, then cells (1 ml) were seeded in culture plates. […]. The viable and dead cells (stained in blue) were counted by haemacytometer.

MCF-7/S cells [2] = assay: Trypan blue exclusion assay, MCF-7/S cells; type: cell-based; conditions: 0.2, 2 and 20 µM with ADR 0.08 µM or VCR 0.5 µM, 48 h
Description: as §1, §2

MCF-7/ADR cells [3] = assay: Hoechst assay (apoptosis); type: cell-based, human; conditions: 20 µM alone, vs control group
Description: MCF-7/ADR cells were collected and cultured at the density of 2.0 × 10^5/well in 24-well plates. […] The cells were dyed with Hoechst 33,342 (Beyotime, Shanghai, China) in the dark at 37°C for 30 min after washing with phosphate buffered saline (PBS). The morphological changes of the nucleus were evaluated by a fluorescence microscope.

[4] = system: MDCK-MDR1 cell monolayers; assay: MDCK-MDR1 transport of BA/23-HBA with or without verapamil; conditions: +VER (verapamil 20 µM) vs without VER
Description: (§3) Briefly, MDCK-MDR1 cells (1×10^5/Well) were seeded onto […] pore-size transwell inserts (Millipore, MA, United States) in 24-well plates. Cells were cultured for 5–7 days, when the transepithelial electrical resistance (TEER) values were 120–240 Ω cm^2.
(§4) The cells were rinsed with warmed Hank’s balanced salt solution (HBSS), and the inserts were incubated for 20 min at 37°C. […] Aliquots (50 µl) were taken from the receiver compartment at intervals of 30, 60, 90, and 120 min and replaced with fresh buffer. In the study, verapamil (VER), known P-gp inhibitor, was selected as positive control.
(§5) The apparent permeability values (Papp) were evaluated in all experiments according to the following equation: Papp=dQ/dt/AC0 (1) where A means the insert area and C0 represents the initial concentration. dQ/dt represents the slope of the cumulative content transported during the time course of the period studied.
(§6) The efflux ratio (ER) was detected according to the ratio of Papp as the following equation: ER=Papp(B−A)/Papp(A−B) (2)

P-gp [5] = assay: as above; conditions: dog
Description: as §3, §4, §5, §6

MCF-7/S cells [6] = assay: ADR/VCR accumulation study in MCF-7/S cells; conditions: ADR/VCR 5 µM, test compound 0.2, 2, 20 µM, 1 h
Description: MCF-7 cells (1×10^5/Well) were incubated in 24-well plates. […] After 1 h incubation, the compound solution was aspirated to stop further accumulation, and the monolayers were rinsed with cold Hank’s solution for three times. The drug content was detected by lysing the cells with ultrasound, and then the single well lysate was transferred to a plastic EP tube for further analysis. The protein concentration of the cells was measured using Coomassie brilliant blue.

P-gp [7] = target: T1, P-gp (Homo sapiens, UniProt P08183); assay: MDCK-MDR1 transport study, inhibition of VCR transport; conditions: dog, MDCK-MDR1
Description: Briefly, MDCK-MDR1 cells (1×10^5/Well) were seeded onto […] pore-size transwell inserts (Millipore, MA, United States) in 24-well plates.
as §4, §5

P-gp [8] = target: T1, P-gp; conditions: Control: digoxin 5 µM alone, MDCK-MDR1 monolayers
Description: (§7) Briefly, MDCK-MDR1 cells (1×10^5/Well) were seeded onto 0.4 mm pore-size transwell inserts (Millipore, MA, United States) in 24-well plates.

P-gp [9] = target: T1, P-gp; assay: in vitro; conditions: dog, MDCK-MDR1
Description: as §7

[10] = MDCK-MDR1, with verapamil 20 µM

T1 sequence (P08183 whole entry): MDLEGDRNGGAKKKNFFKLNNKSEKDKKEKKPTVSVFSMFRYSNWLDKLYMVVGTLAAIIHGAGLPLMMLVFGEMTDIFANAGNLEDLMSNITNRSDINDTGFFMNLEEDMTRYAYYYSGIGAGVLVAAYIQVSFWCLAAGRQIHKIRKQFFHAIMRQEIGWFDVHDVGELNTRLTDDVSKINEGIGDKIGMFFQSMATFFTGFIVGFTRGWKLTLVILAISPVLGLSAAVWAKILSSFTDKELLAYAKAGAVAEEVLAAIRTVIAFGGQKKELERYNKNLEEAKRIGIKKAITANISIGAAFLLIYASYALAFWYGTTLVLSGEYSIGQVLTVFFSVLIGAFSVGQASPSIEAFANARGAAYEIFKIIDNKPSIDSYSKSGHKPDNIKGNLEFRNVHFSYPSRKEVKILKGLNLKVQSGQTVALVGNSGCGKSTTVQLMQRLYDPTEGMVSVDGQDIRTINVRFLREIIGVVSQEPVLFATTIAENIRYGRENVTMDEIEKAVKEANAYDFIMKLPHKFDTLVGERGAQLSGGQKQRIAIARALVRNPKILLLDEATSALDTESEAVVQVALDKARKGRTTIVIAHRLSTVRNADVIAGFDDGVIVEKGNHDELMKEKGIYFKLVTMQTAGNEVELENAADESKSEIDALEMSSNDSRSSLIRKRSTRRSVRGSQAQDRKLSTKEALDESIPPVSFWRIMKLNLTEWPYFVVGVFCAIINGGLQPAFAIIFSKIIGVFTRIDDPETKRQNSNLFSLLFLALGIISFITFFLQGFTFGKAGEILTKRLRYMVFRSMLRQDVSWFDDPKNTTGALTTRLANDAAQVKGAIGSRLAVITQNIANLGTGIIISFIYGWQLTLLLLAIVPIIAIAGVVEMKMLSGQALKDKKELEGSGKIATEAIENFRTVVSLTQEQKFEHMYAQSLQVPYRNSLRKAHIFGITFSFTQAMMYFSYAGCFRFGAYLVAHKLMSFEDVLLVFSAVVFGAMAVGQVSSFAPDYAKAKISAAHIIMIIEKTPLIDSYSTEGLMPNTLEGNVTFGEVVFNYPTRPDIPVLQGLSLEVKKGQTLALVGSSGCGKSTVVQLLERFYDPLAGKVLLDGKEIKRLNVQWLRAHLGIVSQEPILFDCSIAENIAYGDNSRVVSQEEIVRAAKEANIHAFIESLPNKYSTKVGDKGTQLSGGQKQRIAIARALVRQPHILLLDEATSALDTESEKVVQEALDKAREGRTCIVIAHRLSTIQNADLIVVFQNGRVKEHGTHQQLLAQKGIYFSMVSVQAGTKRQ

Compound: C=C(C)[C@@H]1CC[C@]2(C(=O)O)CC[C@]3(C)[C@H](CC[C@@H]4[C@@]5(C)CC[C@H](O)C(C)(C)[C@@H]5CC[C@]43C)[C@@H]12 [BA, Betulinic acid]
Cytotoxicity of combination exposure with ADR to MCF-7/ADR (MCF-7/ADR cells [1]; 0–20 µM with ADR 3 µM): not observed
Cell toxicity as a single agent (MCF-7/ADR cells [1]; 0–20 µM, single agent): no cell toxicity was detected
Effect on cytotoxicity of MCF-7/S cells to ADR or VCR (MCF-7/S cells [2]): neither 23-HBA nor BA showed significant effects on cytotoxicity
Number of apoptosis cells, single agent (MCF-7/ADR cells [3]): not obviously different with the control group
Folds (RE) ([4]; compound 0.2 µM): 0.66
Folds (RE) ([4]; compound 2 µM): 0.75
Folds (RE) ([4]; compound 20 µM): 0.78
Papp A→B at 120 min, 0.2 µM (P-gp [5]; MDCK-MDR1): 612 ± 93.6 nm/s
Papp A→B at 120 min, 2 µM (P-gp [5]; MDCK-MDR1): 54.3 ± 5 nm/s
Papp A→B at 120 min, 20 µM (P-gp [5]; MDCK-MDR1): 7.2 ± 2.6 nm/s
Papp B→A at 120 min, 0.2 µM (P-gp [5]; MDCK-MDR1): 551 ± 98 nm/s
Papp B→A at 120 min, 2 µM (P-gp [5]; MDCK-MDR1): 65.1 ± 8.1 nm/s
Papp B→A at 120 min, 20 µM (P-gp [5]; MDCK-MDR1): 5.9 ± 1.4 nm/s
Papp A→B at 120 min, 0.2 µM (P-gp [5]; [10]): 1050 ± 105 nm/s
Papp A→B at 120 min, 2 µM (P-gp [5]; [10]): 76.5 ± 15.3 nm/s
Papp A→B at 120 min, 20 µM (P-gp [5]; [10]): 2.6 ± 0.5 nm/s
Papp B→A at 120 min, 0.2 µM (P-gp [5]; [10]): 621 ± 47.1 nm/s
Papp B→A at 120 min, 2 µM (P-gp [5]; [10]): 69 ± 7.6 nm/s
Papp B→A at 120 min, 20 µM (P-gp [5]; [10]): 1.7 ± 0.5 nm/s
Accumulation of ADR/VCR in sensitive MCF-7 cells (MCF-7/S cells [6]): little impact was observed

Papp A→B at 120 min (P-gp [7]): 3.5 ± 1.7 nm/s
Papp B→A at 120 min (P-gp [7]): 38.6 ± 7.1 nm/s
efflux ratio at 120 min (P-gp [7]): 10.9
Compound: CC[C@]1(O)C[C@H]2CN(CCc3c([nH]c4ccccc34)[C@@](C(=O)OC)(c3cc4c(cc3OC)N(C=O)[C@H]3[C@@](O)(C(=O)OC)[C@H](OC(C)=O)[C@]5(CC)C=CCN6CC[C@]43[C@@H]65)C2)C1 [VCR, Vincristine, reference compound]

RE (net efflux) of digoxin (P-gp [8]): 36.56
Papp A→B at 120 min, 5 µM (P-gp [9]): 3.1 ± 0.5 nm/s
Compound: C[C@H]1O[C@@H](O[C@H]2[C@@H](O)C[C@H](O[C@H]3[C@@H](O)C[C@H](O[C@H]4CC[C@@]5(C)[C@H](CC[C@@H]6[C@@H]5C[C@@H](O)[C@]5(C)[C@@H](C7=CC(=O)OC7)CC[C@]65O)C4)O[C@@H]3C)O[C@@H]2C)C[C@H](O)[C@@H]1O [digoxin, reference compound]
